# Laboratory results as given in PMC8878324, “Evaluation of New Antimicrobial Agents Based on tris(1H-Indol-3-yl)methylium Salts: Activity, Toxicity, Suppression of Experimental Sepsis in Mice” (Pharmaceuticals, 2022).
# How the values were obtained:
# [1] = Cytotoxic activity, MTT assay; assay type: cell-based, human; settings: human, HPF-hTERT
# Experimental: The cytotoxic activity of the compounds was evaluated on the healthy donor (postnatal) human fibroblasts immortalized by transfection of the hTERT gene of the catalytic component of telomerase (hereinafter HPF-hTERT) that were obtained from N.N. Blokhin Russian Cancer Research Center. HFC-hTERT cells were cultured in Dulbecco’s modified medium (DMEM) containing 2 mM of L-glutamine, 10% fetal calf serum, 100 U/mL of penicillin and 100 μg/mL of streptomycin. Incubation was performed in a humidified atmosphere of 5% CO2 at 37 °C. In the experiment, we used cells in the logarithmic growth phase. To study the cytotoxicity of compounds, 190 μL of cell suspension (~2 thousand cells per well) was added to the wells of 96-well plates and incubated for 16 h. On the day of the experiment, serial dilutions of the test compounds were prepared in DMSO (stock solution—10 mM in 100% DMSO). Further dilutions were conducted in a nutrient medium. The final concentrations of compounds in the experiment were in a concentration range from 0.0025 to 50 μM. The final concentration of DMSO was 1% or less. Each concentration was presented in 3 repetitions. […] The cells were incubated with the test compounds for 72 h. After the end of incubation, 20 μL of MTT solution in growth medium (5 mg/mL) was added to the wells. The cells were incubated for 2 h until a purple color developed, after which the culture medium was removed. DMSO was added to the wells, and the sediment was suspended. Optical density was measured with a Thermo Scientific Multiscan FC spectrophotometer at 570 nm. The values of optical density in wells without addition of test compounds (control) were taken as 100% cell survival. The percentage of survival of cells incubated with the test compounds was calculated by dividing the optical density in the corresponding well (average of 3 independent measurements) by the optical density in the control. The concentration of drugs causing 50% cell death (IC50) was evaluated and expressed in μg/mL.
# [2] = tested on: Aspergillus niger ATCC 16404; assay: MIC by broth microdilution (RPMI 1640); assay type: cell-based; settings: ATCC16404
# Experimental: (§1) We have tested the antimicrobial activity in vitro of over 100 tris(indolyl)methane derivatives against 16 strains of Gram-positive, Gram-negative bacteria and fungi including either sensitive or drug-resistant strains from ATCC, as well as resistant clinical isolates from the culture collection of the Laboratory for Control of Hospital Infections (Sechenov University, Moscow, Russia). The minimum inhibitory concentrations (MICs) were determined by the microdilution method in a cation-adjusted Müller–Hinton medium for bacteria and in a liquid culture medium RPMI 1640 with L-glutamine without sodium bicarbonate for fungi in accordance with the requirements of the Institute of Clinical and Laboratory Standards (CLSI/NCCLS). […] As a rule, their activity against Gram-negative bacteria was usually not that high. […] For comparison, the antimicrobial activity of prototype 4 is shown. The antibacterial antibiotic levofloxacin and the antifungal amphotericin B were used as reference drugs (Table 1).
# (§2) The synthesis of compounds and the scheme of their preparation and purification, as well as physicochemical characteristics, were described earlier. To evaluate the biological activity in vitro, the compounds were dissolved in DMSO at a concentration of 2.0–6.4 mg/mL, followed by preparation of two-fold dilutions in the same solvent, if necessary. The solutions were further diluted in an aqueous medium for the final concentration of DMSO not to exceed 1%, and the concentration of the compounds ranged from 64.0 to 0.13 μg/mL. To study compounds in vivo, solutions for intravenous administration in 5% glucose solution were prepared. Solutions were sterilized by filtration through 0.22 µm filters (Millipore, Burlington, MA, USA).
# (§3) Strains of Gram-positive, Gram-negative bacteria and fungi including sensitive or drug-resistant strains from ATCC, as well as resistant clinical isolates from the culture collection of the Laboratory for Control of Hospital Infections (Sechenov University, Moscow, Russia), were used. Clinical isolates of Gram-positive bacteria Staphylococcus aureus 5 (MRSA), Staphylococcus aureus 10, Staphylococcus aureus 100KC (MRSA), Staphylococcus epidermidis 533, Staphylococcus haemoliticus 585 and Enterococcus faecium 569, as well as collection cultures of Gram-positive bacteria Staphylococcus aureus ATCC 700699, Staphylococcus aureus ATCC 25923, Staphylococcus aureus ATCC 3798 and collection cultures of Gram-negative bacteria Escherichia coli ATCC 25922, Klebsiella pneumoniae ATCC 13883, Proteus vulgaris ATCC 13315, Salmonella cholerasuis ATCC 14028, Pseudomonas aeruginosa ATCC 27853 and collection cultures of the yeast Candida albicans ATCC 14053 and the fungi Aspergillus niger ATCC 16404 were used. To grow the microorganisms, we used Trypticase Soy Agar (TSA, Sigma-Aldrich Co., Burlington, MA, USA). Trypticase Soy Agar, BBL, was used for cultivation of Staphylococcus spp. and E. coli. For cultivation of Enterococcus spp. and P. aeruginosa we used a ready-made dry medium Columbia Agar Base, BBL. The media were sterilized by autoclaving at 121 °C for 15 min. Yeast culture C. albicans was grown on Sabouraud agar (peptone—10 g, glucose—40 g, agar—20 g, distilled water—1 L, pH 6.0), and filamentous fungi A. niger was grown on potato–glucose agar (potatoes—200 g, glucose—20 g, agar—15 g, distilled water—1 L, pH 5.5–6.0).
# (§4) To determine the antibacterial effect, a liquid Müller–Hinton medium (Becton, Dickinson and Company, Cockeysville, MD, USA) was used; to determine the effect of compounds on fungi we used RPMI 1640 medium with L-glutamine, without sodium bicarbonate, which was prepared from a dry medium (ICN Biomedicals Inc., Costa Mesa, CA, USA) by dilution in distilled water, subsequent buffering with 0.165 M of morpholinepropanesulfonic acid (MOPS, Acros Organics B.V.B.A., Morris Plains, NJ, USA) and adjusting the pH of the medium to 7.0 by adding 1 N of NaOH solution. […]
# [3] = tested on: Candida albicans ATCC 14053; assay: MIC by broth microdilution (RPMI 1640); assay type: cell-based; settings: ATCC14053
# Experimental: as §1, §2, §3, §4
# [4] = tested on: yeast (Candida albicans) and fungi (Aspergillus niger); assay: Antifungal activity; assay type: cell-based; settings: Candida albicans and Aspergillus niger
# Experimental: as §1
# (§5) The minimum inhibitory concentrations (MIC) for Gram-positive and Gram-negative bacteria were determined by two-fold serial microdilution method in a cation-adjusted Müller–Hinton medium for bacteria and in a liquid culture medium RPMI 1640 with L-glutamine without sodium bicarbonate for fungi in accordance with the requirements of the Institute of Clinical and Laboratory Standards (CLSI/NCCLS). The antibacterial antibiotic levofloxacin and the antifungal antibiotic amphotericin B from Sigma-Aldrich were used as reference drugs.
# Gram-positive bacteria = assay: MIC against Gram-positive bacteria; assay type: cell-based
# Experimental: as §1, §5
# [5] = tested on: Staphylococcus aureus ATCC 25923; assay: MIC by broth microdilution; assay type: cell-based; settings: ATCC25923
# Experimental: as §1, §2, §3, §4
# Staphylococcus aureus 10 = assay: MIC by broth microdilution; assay type: cell-based
# Experimental: as §1, §2, §3, §4
# [6] = tested on: Salmonella cholerasuis ATCC 14028; assay: MIC by broth microdilution; assay type: cell-based; settings: ATCC14028
# Experimental: as §1, §2, §3, §4
# [7] = tested on: Staphylococcus aureus ATCC 3798; assay: MIC by broth microdilution; assay type: cell-based; settings: ATCC3798
# Experimental: as §1, §2, §3, §4
# Enterococcus faecium 569 = assay: MIC by broth microdilution; assay type: cell-based; settings: Enterococcus faecium 569
# Experimental: as §1, §2, §3, §4
# Staphylococcus aureus 5 = assay: MIC by broth microdilution; assay type: cell-based; settings: Staphylococcus aureus 5 (MRSA)
# Experimental: as §1, §2, §3, §4
# [8] = tested on: Klebsiella pneumoniae ATCC 13883; assay: MIC by broth microdilution; assay type: cell-based; settings: ATCC13883
# Experimental: as §1, §2, §3, §4
# [9] = tested on: Staphylococcus aureus 100KC; assay: MIC by broth microdilution; assay type: cell-based; settings: Staphylococcus aureus 100KC (MRSA)
# Experimental: as §1, §2, §3, §4
# [10] = tested on: Staphylococcus haemoliticus 585; assay: MIC by broth microdilution; assay type: cell-based; settings: Staphylococcus haemoliticus 585
# Experimental: as §1, §2, §3, §4
# [11] = tested on: Escherichia coli ATCC 25922; assay: MIC by broth microdilution; assay type: cell-based; settings: ATCC25922
# Experimental: as §1, §2, §3, §4
# [12] = tested on: Pseudomonas aeruginosa ATCC 27853; assay: MIC by broth microdilution; assay type: cell-based; settings: ATCC27853
# Experimental: as §1, §2, §3, §4
# [13] = tested on: Staphylococcus epidermidis 533; assay: MIC by broth microdilution; assay type: cell-based
# Experimental: as §1, §2, §3, §4
# [14] = tested on: Staphylococcus aureus ATCC 700699; assay: MIC by broth microdilution; assay type: cell-based; settings: ATCC700699
# Experimental: as §1, §2, §3, §4
# [15] = tested on: Proteus vulgaris ATCC 13315; assay: MIC by broth microdilution; assay type: cell-based; settings: ATCC13315
# Experimental: as §1, §2, §3, §4
Compound,IC50 at 72 h [1] [µg/mL],MIC [2] [µg/mL],MIC [3] [µg/mL],MIC [4] [µg/mL],MIC (Gram-positive bacteria) [µg/mL],MIC [5] [µg/mL],MIC (Staphylococcus aureus 10) [µg/mL],MIC [6] [µg/mL],MIC [7] [µg/mL],MIC (Enterococcus faecium 569) [µg/mL],MIC (Staphylococcus aureus 5) [µg/mL],MIC [8] [µg/mL],MIC [9] [µg/mL],MIC [10] [µg/mL],MIC [11] [µg/mL],MIC [12] [µg/mL],MIC [13] [µg/mL],MIC [14] [µg/mL],MIC [15] [µg/mL]
"C[C@@H]1[C@H](O)[C@@H](C)/C=C/C=C/C=C/C=C/C=C/C=C/C=C/[C@H](O[C@@H]2O[C@H](C)[C@@H](O)[C@H](N)[C@@H]2O)C[C@@H]2O[C@](O)(C[C@@H](O)C[C@@H](O)[C@H](O)CC[C@@H](O)C[C@@H](O)CC(=O)O[C@H]1C)C[C@H](O)[C@H]2C(=O)O [Amphotericin B, amphotericin B, reference compound]",0.7,1,1,,,,,,,,,,,,,,,,
"CCCn1cc([C+](c2cn(CCC)c3ccccc23)c2cn(CCC)c3ccccc23)c2ccccc21.[Cl-] [Compound 4, tris(1-propyl-1H-indol-3-yl) methylium chloride]",0.07,2,1,2,0.25,0.25,0.25,32,0.25,1,0.5,> 64,0.5,0.5,32,64,0.13,0.25,1
